# Test system: patients with type 2 diabetes at high vascular risk
# Assay: Cardiovascular and Renal Outcomes Trial: linagliptin 5 mg once daily vs placebo on top of standard of care
# Assay type: in vivo
# Conditions: for Hazard ratio for hospitalised heart failure: vs placebo
# Protocol: The effect of linagliptin on cardiovascular risk in adult patients with type 2 diabetes mellitus and with increased CV risk evidenced by a history of established macrovascular or renal disease (e.g. as defined herein) was evaluated in a multi-center, multi-national, randomized, double-blind parallel group trial. The trial compared the risk of experiencing a major adverse cardiovascular event (MACE) between linagliptin and placebo when these were added to and used concomitantly with standard of care treatments for diabetes (HbA1c), cardiovascular risk factors and renal disease.
# The primary endpoint in this trial was the time to first occurrence of three point (3P) MACE. A major adverse cardiac event was defined as a cardiovascular death or a nonfatal myocardial infarction (MI) or a nonfatal stroke. The statistical analysis plan tested for non-inferiority for the occurrence of (3P) MACE. […] The secondary endpoint was a renal composite, defined as renal death or sustained end stage renal disease or sustained decrease of 40% or more in eGFR.
# Type 2 diabetes patient with insufficient glycemic control (naïve or pre-treated with any antidiabetic background medication, excluding treatment with GLP-1 receptor agonists, DPP-4inhibitors or SGLT-2 inhibitors if ≥consecutive 7 days, e.g. having HbA1c 6.5-10%), and high risk of cardiovascular events, e.g. defined by: • albuminuria (micro or macro) and previous macrovascular disease: e.g. defined according to Condition I as indicated below; • and/or • impaired renal function: e.g. as defined according to Condition II as indicated below;
# Background and aims: People with type 2 diabetes (T2D) are at increased risk for hospitalization for heart failure (hHF), particularly in the setting of concomitant cardiovascular (CV) and/or kidney disease. […] Here we present analyses of HF outcomes with the DPP-4 inhibitor linagliptin (LINA) vs. placebo (PBO) from a Cardiovascular and Renal Outcomes Trial assessing cardiovascular safety and renal microvascular outcome in patients with type 2 diabetes at high vascular risk, a large CV outcomes trial that enrolled participants with T2D at high risk for hHF due to concomitant CV and/or chronic kidney disease. Materials and methods: People with T2D and concomitant CV and/or kidney disease were randomized to receive LINA 5 mg, or PBO once daily (1:1), on top of standard of care. All hHF, CV outcomes, and deaths were centrally adjudicated, with individual and composite HF-related outcomes analyses comparing LINA vs. placebo. Investigator-reported HF-related adverse events, whether or not confirmed by adjudication, were also analyzed. A Cox proportional hazards model adjusting for region and history of HF was used for analyses of first events. Recurrent hHF events were analyzed using a negative binomial model.
# Methods: The present Cardiovascular and Renal Outcomes Trial randomized people with T2D and i) concomitant CV disease with UACR >30 mg/g or ii) prevalent CKD (i.e. GFR <45 ml/min/1.73m2 and/or UACR >200 mg/g) to receive the DPP-4 inhibitor linagliptin (5 mg) or placebo once daily in a double-blind fashion. The primary CV endpoint was 3P-MACE, with a key secondary kidney endpoint (adjudicated ESKD, renal death, or sustained ≥40% decrease in eGFR from baseline) and other renal outcomes (including albuminuria and eGFR slope) also assessed. Subgroups were assessed by baseline kidney function (eGFR ≥/<45 ml/min/1.73m2and eGFR ≥/<30, 45 or 60 ml/min/1.73m2).
# Adults with type 2 diabetes, HbA1c 6.5-10.0% inclusive, and high CV risk were eligible for inclusion. […] Macrovascular disease eligibility criteria was based on documented and confirmed history of myocardial infarction, coronary artery disease, stroke, carotid artery disease, or peripheral artery disease. Participants with end-stage kidney disease (ESKD), defined as eGFR <15 or requiring maintenance dialysis, were excluded.
# [1] = Metformin-dose: Not on metformin
# [2] = Prevalent kidney disease (eGFR<60 mL/min/1.73 m^2 or macroalbuminuria UACR >300 mg/g) No
# [3] = Prevalent kidney disease (eGFR<60 mL/min/1.73 m^2 or macroalbuminuria UACR >300 mg/g) Yes
# [4] = Prevalent kidney disease (eGFR<60 or UACR >300 mg/g) No
# [5] = Prevalent kidney disease (eGFR<60 or UACR >300 mg/g) Yes
compound,measurement,setting,value
"CC#CCn1c(N2CCC[C@@H](N)C2)nc2c1c(=O)n(Cc1nc(C)c3ccccc3n1)c(=O)n2C [Linagliptin, 1-[(4-methyl-quinazolin-2-yl)methyl]-3-methyl-7-(2-butyn-1-yl)-8-(3-(R)-amino-piperidin-1-yl)-xanthine]",Hazard ratio for hospitalised heart failure,History of heart failure Yes,0.88
same,3-point MACE: hazard ratio vs placebo,Insulin No,0.88
same,3-point MACE: patients with event/patients analyzed,Insulin No,139/1487
same,Key secondary kidney outcome: hazard ratio vs placebo,Insulin No,1.08
same,Key secondary kidney outcome: patients with event/patients analyzed,Insulin No,101/1487
same,"Patients with event/patients analysed, hospitalised heart failure",Insulin No,40/1487
same,Hazard ratio for hospitalised heart failure,Insulin No,0.62
same,3-point MACE: hazard ratio vs placebo,Insulin Yes,1.10
same,3-point MACE: patients with event/patients analyzed,Insulin Yes,295/2007
same,Key secondary kidney outcome: hazard ratio vs placebo,Insulin Yes,1.01
same,Key secondary kidney outcome: patients with event/patients analyzed,Insulin Yes,226/2007
same,"Patients with event/patients analysed, hospitalised heart failure",Insulin Yes,169/2007
same,Hazard ratio for hospitalised heart failure,Insulin Yes,1.00
same,"Patients with event/patients analysed, hospitalised heart failure",Ischemic heart disease No,66/1465
same,Hazard ratio for hospitalised heart failure,Ischemic heart disease No,1.04
same,"Patients with event/patients analysed, hospitalised heart failure",Ischemic heart disease Yes,143/2029
same,Hazard ratio for hospitalised heart failure,Ischemic heart disease Yes,0.85
same,3-point MACE: hazard ratio vs placebo,Lipid lowering drugs No,0.90
same,3-point MACE: patients with event/patients analyzed,Lipid lowering drugs No,95/871
same,Key secondary kidney outcome: hazard ratio vs placebo,Lipid lowering drugs No,1.13
same,Key secondary kidney outcome: patients with event/patients analyzed,Lipid lowering drugs No,101/871
same,"Patients with event/patients analysed, hospitalised heart failure",Lipid lowering drugs No,34/871
same,Hazard ratio for hospitalised heart failure,Lipid lowering drugs No,1.01
same,3-point MACE: hazard ratio vs placebo,Lipid lowering drugs Yes,1.06
same,3-point MACE: patients with event/patients analyzed,Lipid lowering drugs Yes,339/2623
same,Key secondary kidney outcome: hazard ratio vs placebo,Lipid lowering drugs Yes,1.00
same,Key secondary kidney outcome: patients with event/patients analyzed,Lipid lowering drugs Yes,226/2623
same,"Patients with event/patients analysed, hospitalised heart failure",Lipid lowering drugs Yes,175/2623
same,Hazard ratio for hospitalised heart failure,Lipid lowering drugs Yes,0.88
same,"Patients with event/patients analysed, hospitalised heart failure",Loop diuretics No,80/2530
same,Hazard ratio for hospitalised heart failure,Loop diuretics No,0.97
same,"Patients with event/patients analysed, hospitalised heart failure",Loop diuretics Yes,129/964
same,Hazard ratio for hospitalised heart failure,Loop diuretics Yes,0.90
same,3-point MACE: hazard ratio vs placebo,Metformin No,1.02
same,3-point MACE: patients with event/patients analyzed,Metformin No,242/1613
same,Key secondary kidney outcome: hazard ratio vs placebo,Metformin No,0.99
same,Key secondary kidney outcome: patients with event/patients analyzed,Metformin No,212/1613
same,"Patients with event/patients analysed, hospitalised heart failure",Metformin No,138/1613
same,Hazard ratio for hospitalised heart failure,Metformin No,0.97
same,3-point MACE: hazard ratio vs placebo,Metformin Yes,1.02
same,3-point MACE: patients with event/patients analyzed,Metformin Yes,192/1881
same,Key secondary kidney outcome: hazard ratio vs placebo,Metformin Yes,1.11
same,Key secondary kidney outcome: patients with event/patients analyzed,Metformin Yes,115/1881
same,"Patients with event/patients analysed, hospitalised heart failure",Metformin Yes,71/1881
same,Hazard ratio for hospitalised heart failure,Metformin Yes,0.79
same,3-point MACE: hazard ratio vs placebo,Metformin-dose >1500 mg,1.02
same,3-point MACE: patients with event/patients analyzed,Metformin-dose >1500 mg,111/1094
same,Key secondary kidney outcome: hazard ratio vs placebo,Metformin-dose >1500 mg,0.99
same,Key secondary kidney outcome: patients with event/patients analyzed,Metformin-dose >1500 mg,62/1094
same,"Patients with event/patients analysed, hospitalised heart failure",Metformin-dose >1500 mg,49/1094
same,Hazard ratio for hospitalised heart failure,Metformin-dose >1500 mg,0.88
same,3-point MACE: hazard ratio vs placebo,Metformin-dose ≤1500 mg,1.02
same,3-point MACE: patients with event/patients analyzed,Metformin-dose ≤1500 mg,81/787
same,Key secondary kidney outcome: hazard ratio vs placebo,Metformin-dose ≤1500 mg,1.29
same,Key secondary kidney outcome: patients with event/patients analyzed,Metformin-dose ≤1500 mg,53/787
same,"Patients with event/patients analysed, hospitalised heart failure",Metformin-dose ≤1500 mg,22/787
same,Hazard ratio for hospitalised heart failure,Metformin-dose ≤1500 mg,0.65
same,3-point MACE: hazard ratio vs placebo,[1],1.02
same,3-point MACE: patients with event/patients analyzed,[1],242/1613
same,Key secondary kidney outcome: hazard ratio vs placebo,[1],0.99
same,Key secondary kidney outcome: patients with event/patients analyzed,[1],212/1613
same,"Patients with event/patients analysed, hospitalised heart failure",[1],138/1613
same,Hazard ratio for hospitalised heart failure,[1],0.97
same,"Patients with event/patients analysed, hospitalised heart failure",[2],18/887
same,Hazard ratio for hospitalised heart failure,[2],0.69
same,"Patients with event/patients analysed, hospitalised heart failure",[3],191/2606
same,Hazard ratio for hospitalised heart failure,[3],0.91
same,3-point MACE: hazard ratio vs placebo,[4],0.88
same,3-point MACE: patients with event/patients analyzed,[4],60/887
same,Key secondary kidney outcome: hazard ratio vs placebo,[4],1.36
same,Key secondary kidney outcome: patients with event/patients analyzed,[4],19/887
same,3-point MACE: hazard ratio vs placebo,[5],1.04
same,3-point MACE: patients with event/patients analyzed,[5],374/2606
same,Key secondary kidney outcome: hazard ratio vs placebo,[5],0.99
same,Key secondary kidney outcome: patients with event/patients analyzed,[5],308/2606
same,3-point MACE: hazard ratio vs placebo,Race Asian,1.09
same,3-point MACE: patients with event/patients analyzed,Race Asian,40/307
same,Key secondary kidney outcome: hazard ratio vs placebo,Race Asian,0.90
same,Key secondary kidney outcome: patients with event/patients analyzed,Race Asian,32/307
same,"Patients with event/patients analysed, hospitalised heart failure",Race Asian,14/307
same,3-point MACE: hazard ratio vs placebo,Race Black/African-American,1.30
same,3-point MACE: patients with event/patients analyzed,Race Black/African-American,31/194
same,Key secondary kidney outcome: hazard ratio vs placebo,Race Black/African-American,1.31
same,Key secondary kidney outcome: patients with event/patients analyzed,Race Black/African-American,35/194
same,"Patients with event/patients analysed, hospitalised heart failure",Race Black/African-American,15/194

# — patent publication US20240398817A1, “CARDIO- AND RENOSAFE ANTIDIABETIC THERAPY” (priority 2018, published 2024)
